Results on 14 molecules are retold here after ChEMBL document CHEMBL1144434, “Structure-activity relationships within a series of caspase inhibitors. Part 2: Heterocyclic warheads” (Bioorg Med Chem Lett, 2005).

pIC50: −log10 of the molar value.

For one experiment, the target named is T1, Caspase-3 (Homo sapiens) (UniProt P42574).
T1 sequence (whole entry): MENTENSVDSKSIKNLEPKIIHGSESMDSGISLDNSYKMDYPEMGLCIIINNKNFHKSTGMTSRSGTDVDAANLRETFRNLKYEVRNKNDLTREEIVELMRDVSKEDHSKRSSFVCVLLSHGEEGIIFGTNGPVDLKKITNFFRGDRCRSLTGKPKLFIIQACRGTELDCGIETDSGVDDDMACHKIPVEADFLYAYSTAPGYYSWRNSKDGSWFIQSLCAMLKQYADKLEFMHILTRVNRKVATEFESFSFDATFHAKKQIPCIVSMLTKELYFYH
The experiment is described as follows: Binding affinity against Caspase-3.

In the next experiment the target is Caspase-8 (Homo sapiens) (UniProt Q14790). The experiment is described as follows: Binding affinity against Caspase-8.
The target of experiment [1] is T2, Caspase-6 (Homo sapiens) (UniProt P55212).
T2 sequence (whole entry): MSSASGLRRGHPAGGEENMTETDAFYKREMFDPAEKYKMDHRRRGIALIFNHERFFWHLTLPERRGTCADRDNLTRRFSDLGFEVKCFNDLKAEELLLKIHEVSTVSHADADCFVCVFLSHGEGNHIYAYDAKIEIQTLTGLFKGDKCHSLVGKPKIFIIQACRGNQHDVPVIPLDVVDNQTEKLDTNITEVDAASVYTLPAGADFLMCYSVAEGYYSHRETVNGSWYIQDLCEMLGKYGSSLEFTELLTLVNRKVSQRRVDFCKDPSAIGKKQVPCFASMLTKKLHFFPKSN
The experiment is described as follows: Reversible inhibition against Caspase-6.

Another experiment addresses T3, Caspase-1 (Mus musculus) (UniProt P29452).
T3 sequence (whole entry): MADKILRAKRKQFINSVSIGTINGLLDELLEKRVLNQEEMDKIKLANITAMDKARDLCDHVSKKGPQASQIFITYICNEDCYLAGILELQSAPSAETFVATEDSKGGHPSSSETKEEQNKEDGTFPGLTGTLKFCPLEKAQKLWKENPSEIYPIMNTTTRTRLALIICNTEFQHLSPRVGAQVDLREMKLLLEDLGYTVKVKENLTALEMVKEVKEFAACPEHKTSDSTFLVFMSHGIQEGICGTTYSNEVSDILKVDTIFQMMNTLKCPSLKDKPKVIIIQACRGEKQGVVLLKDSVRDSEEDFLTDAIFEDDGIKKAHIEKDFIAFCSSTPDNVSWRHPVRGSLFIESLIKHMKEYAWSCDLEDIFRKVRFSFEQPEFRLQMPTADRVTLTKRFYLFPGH
The experiment can be described thus: Binding affinity against mouse Caspase-1.

In another experiment the test system is Jurkat. The experiment can be described thus: Inhibitory concentration for cellular activity in jurkat assay. The settings on record: Homo sapiens. The class given is functional, cell-based.
Experiment [2] concerns the target T2, Caspase-6 (Homo sapiens). The experiment can be described thus: Binding affinity against Caspase-6.

Caspase-8 (Homo sapiens), sequence (Q14790 217-374 limits assumed): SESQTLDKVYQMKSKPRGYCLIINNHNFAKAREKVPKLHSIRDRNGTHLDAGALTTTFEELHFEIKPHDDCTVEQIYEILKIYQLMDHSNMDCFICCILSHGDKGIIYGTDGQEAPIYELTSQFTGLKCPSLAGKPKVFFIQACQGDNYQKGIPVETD
Caspase-8 (Homo sapiens), sequence (Q14790 385-479 limits assumed): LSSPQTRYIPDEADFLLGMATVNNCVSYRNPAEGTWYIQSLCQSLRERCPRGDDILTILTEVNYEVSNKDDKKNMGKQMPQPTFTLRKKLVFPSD

In general, pIC50 refers to the IC50 on a negative log10 scale, so that one unit is a factor of ten. Higher therefore signals a low IC50. For the molecule `CCOC(=O)c1c(C)noc1OCC(=O)[C@H](CC(=O)O)NC(=O)[C@@H](NC(=O)COc1cccc2ccccc12)C(C)C`, the k3/ki at Caspase-3 (Homo sapiens) was 5670 1/m/s; at Caspase-8 (Homo sapiens), 1140 1/m/s; on Caspase-6 (Homo sapiens) [1], 0 1/m/s; at Caspase-1 (Mus musculus), 1440 1/m/s. In the experiment with Jurkat, the pIC50 is under 3.70.
As to `CC(C)[C@H](NC(=O)COc1cccc2ccccc12)C(=O)N[C@@H](CC(=O)O)C(=O)COc1ccccn1`, the k3/ki on Caspase-3 (Homo sapiens) is 733 1/m/s; on Caspase-6 (Homo sapiens) [2], 5 1/m/s; at Caspase-8 (Homo sapiens) it was 8 1/m/s; at Caspase-1 (Mus musculus) it was 138 1/m/s. This molecule showed a pIC50 in the experiment with Jurkat of under 3.70.
Taken in the same sequence, the figures for `CC(C)[C@H](NC(=O)COc1cccc2ccccc12)C(=O)N[C@@H](CC(=O)O)C(=O)CSc1nc(-c2ccccc2)c(-c2ccccc2)o1` were 2010 1/m/s, 0 1/m/s, 218 1/m/s, 200 1/m/s and under 3.70.
In the case of `Cc1cc(OCC(=O)[C@H](CC(=O)O)NC(=O)[C@@H](NC(=O)COc2cccc3ccccc23)C(C)C)nc(C)n1`, the k3/ki at Caspase-3 (Homo sapiens) is 7480 1/m/s; on Caspase-6 (Homo sapiens) [2], 903 1/m/s; at Caspase-8 (Homo sapiens), 367 1/m/s; at Caspase-1 (Mus musculus), 1330 1/m/s. The same molecule gave a pIC50 with Jurkat of under 3.70.
Consider `CC(C)[C@H](NC(=O)COc1cccc2ccccc12)C(=O)N[C@@H](CC(=O)O)C(=O)CSc1nc(-c2ccccc2)c(-c2ccccc2)[nH]1`, for which the k3/ki at Caspase-3 (Homo sapiens) is 1390 1/m/s; at Caspase-6 (Homo sapiens) [2], 22 1/m/s; on Caspase-8 (Homo sapiens), 0 1/m/s; on Caspase-1 (Mus musculus), 199 1/m/s. In the experiment with Jurkat, this molecule gave a pIC50 of under 3.70.
Taken in the same sequence, the figures for `CC(C)[C@H](NC(=O)COc1cccc2ccccc12)C(=O)N[C@@H](CC(=O)O)C(=O)COc1ccncn1` were 0 1/m/s, 0 1/m/s, 0 1/m/s, 0 1/m/s and under 3.70.
As to `CC(C)c1cc(OCC(=O)[C@H](CC(=O)O)NC(=O)[C@@H](NC(=O)COc2cccc3ccccc23)C(C)C)no1`, the k3/ki is 21800 1/m/s at Caspase-3 (Homo sapiens), 220 1/m/s at Caspase-6 (Homo sapiens) [2], 279 1/m/s on Caspase-8 (Homo sapiens) and 3670 1/m/s at Caspase-1 (Mus musculus). The pIC50 in the experiment on Jurkat was under 3.70.
Take `CC(C)[C@H](NC(=O)COc1cccc2ccccc12)C(=O)N[C@@H](CC(=O)O)C(=O)COn1nnc2ccccc2c1=O`: the k3/ki at Caspase-3 (Homo sapiens) is 169000 1/m/s; at Caspase-6 (Homo sapiens) [2], 44000 1/m/s; on Caspase-8 (Homo sapiens), 18200 1/m/s; on Caspase-1 (Mus musculus) it was 45400 1/m/s. The same molecule had a pIC50 in the experiment with Jurkat of 3.86.
As for `CC(C)[C@H](NC(=O)COc1cccc2ccccc12)C(=O)N[C@@H](CC(=O)O)C(=O)COc1[nH]cnc2nncc1-2`, the k3/ki on Caspase-3 (Homo sapiens) is 906 1/m/s; on Caspase-6 (Homo sapiens) [2] it was 143 1/m/s; on Caspase-8 (Homo sapiens) it was 107 1/m/s; on Caspase-1 (Mus musculus), 273 1/m/s. In the experiment on Jurkat, this molecule had a pIC50 of 3.79.
Taken in the same sequence, the figures for `CC(C)[C@H](NC(=O)COc1cccc2ccccc12)C(=O)N[C@@H](CC(=O)O)C(=O)CSc1nnnn1C` were 34400 1/m/s, 2150 1/m/s, 6510 1/m/s, 3630 1/m/s and under 3.70.
The like results for `CC(C)[C@H](NC(=O)COc1cccc2ccccc12)C(=O)N[C@@H](CC(=O)O)C(=O)CSc1nc(-c2ccccc2)cs1` were, in that order, 2730 1/m/s, 0 1/m/s, 0 1/m/s, 217 1/m/s and under 3.70.
Taken in the same sequence, the figures for `CC(C)[C@H](NC(=O)COc1cccc2ccccc12)C(=O)N[C@@H](CC(=O)O)C(=O)COc1nccc(C(F)(F)F)n1` were 0 1/m/s, 0 1/m/s, 0 1/m/s, 0 1/m/s and under 3.70.
On to `CC(C)[C@H](NC(=O)COc1cccc2ccccc12)C(=O)N[C@@H](CC(=O)O)C(=O)COc1cc(C(F)(F)F)ncn1`, for which the k3/ki on Caspase-3 (Homo sapiens) is 1750 1/m/s; at Caspase-6 (Homo sapiens) [2] it was 156 1/m/s; on Caspase-8 (Homo sapiens), 0 1/m/s; at Caspase-1 (Mus musculus), 479 1/m/s. The negative-log IC50 (pIC50) in the experiment with Jurkat is under 3.70.
`CC(C)[C@H](NC(=O)COc1cccc2ccccc12)C(=O)N[C@@H](CC(=O)O)C(=O)COc1cncc2ccccc12`: the k3/ki on Caspase-3 (Homo sapiens), on Caspase-6 (Homo sapiens) [2], at Caspase-8 (Homo sapiens) and on Caspase-1 (Mus musculus) was 0 1/m/s in each case. The same molecule showed a pIC50 in the experiment on Jurkat of 3.78.
